For one compound, inhibition and MIC results are on record in ChEMBL document CHEMBL1155625, “Nostocyclyne A, a novel antimicrobial cyclophane from the cyanobacterium Nostoc sp” (2000).

What all share (assay type): functional
The test system of one assay is Chlorophyta. In words: Inhibition of photosynthesis in green alga at 100 ug/mL.
For a further assay, the system named is Staphylococcus aureus. In words: Antimicrobial activity against Staphylococcus aureus measured per disk.
The subject of the next assay is Escherichia coli. In words: Antimicrobial activity against Escherichia coli measured per disk.

By inhibition is commonly meant the drop in the measured response relative to a control, in per cent. Read a high inhibition as a strong effect. In the case of `CCCC1CCCCCCCCCCCC#Cc2cc(O)c1c(O)c2` (stereo not drawn) [NOSTOCYCLYNE A], 100 µg/mL produced 5% inhibition with Chlorophyta. In addition, the MIC in the assay on Staphylococcus aureus is 12.5 µg; against Escherichia coli, 10 µg.
